Laboratory results taken from publication PMC7377239, “Cardiovascular Effects of Polychlorinated Biphenyls and Their Major Metabolites” (Environmental Health Perspectives, 2020).
Read-outs that look alike come from different tables or passages of the source.

Tested on: iCell cardiomyocytes (human iPSC-derived cardiomyocytes)
Assay: Intracellular Ca2+ flux / beating parameters in iCell cardiomyocytes (FLIPR tetra), 90 min or 24 h
Assay type: cell-based
Details: for activity at 0.01 µM / activity at 0.1 µM / activity at 1 µM / activity at 10 µM / activity at 100 µM: Homo sapiens, Cardiomyocyte, 0.00 µM = 100.00; for activity at 0.1 µM: 0.10 µM
Summary of the method: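 Gelatin-plated iCell cardiomyocytes (5,000/well) were dye-loaded for 2 h at 37 °C, then exposed for 90 min or 24 h to PCBs/metabolites (5× plates at 0.05–500 µM; 0.5% DMSO final) in triplicate. Ca2+ flux was read for 100 s at 8 Hz and 37 °C. Peak height, frequency, spacing CV and decay/rise ratio were vehicle-normalized and fitted with a four-parameter logistic model, with POD set at 1 SD of vehicle.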

[1] = 1.5 h, 90min, read-out: cm.amp.avg.90min
[2] = 1.5 h, 90min, read-out: cm.amp.cv.90min
[3] = 1.5 h, 90min, read-out: cm.bpm.90min
[4] = 1.5 h, 90min, read-out: cm.decay.rise.90min
[5] = 1.5 h, 90min, read-out: cm.spacing.cv.90min
[6] = 24 h, 24hrs, read-out: cm.amp.avg.24hrs
[7] = 24 h, 24hrs, read-out: cm.amp.cv.24hrs
[8] = 24 h, 24hrs, read-out: cm.bpm.24hrs
[9] = 24 h, 24hrs, read-out: cm.decay.rise.24hrs
[10] = 24 h, 24hrs, read-out: cm.spacing.cv.24hrs

Work on `Oc1cc(Cl)c(-c2cc(Cl)ccc2Cl)cc1Cl` [4-OH PCB52] yielded an activity at 0.01 µM [1] of 107%, an activity at 0.01 µM [2] of 94.5% and an activity at 0.01 µM [3] of 97.8%. For the same molecule, the activity at 0.01 µM [4] was 98.4%, the activity at 0.01 µM [5] was 115% and the activity at 0.1 µM [1] was 103%. It also gave an activity at 0.1 µM [2] of 96.5%, an activity at 0.1 µM [3] of 99.1% and an activity at 0.1 µM [4] of 96.6%. The activity at 0.1 µM [5] was 104%, the activity at 1 µM [1] was 110% and the activity at 1 µM [2] was 99.2%. For the same molecule, the activity at 1 µM [3] was 91.5%, the activity at 1 µM [4] was 99.2% and the activity at 1 µM [5] was 108%. It also gave an activity at 10 µM [1] of 105%, an activity at 10 µM [2] of 100% and an activity at 10 µM [3] of 58.9%. For the same molecule, the activity at 10 µM [4] was 114%, the activity at 10 µM [5] was 102% and the activity at 100 µM [1] was 0%. It also gave an activity at 100 µM [2] of 0%, an activity at 100 µM [3] of 0% and an activity at 100 µM [4] of 0%. The activity at 100 µM [5] was 0%, the activity at 0.01 µM [6] was 125% and the activity at 0.01 µM [7] was 96.2%. The activity at 0.01 µM [8] was 105%, the activity at 0.01 µM [9] was 93.1% and the activity at 0.01 µM [10] was 102%. The activity at 0.1 µM [6] was 79.9%, the activity at 0.1 µM [7] was 128% and the activity at 0.1 µM [8] was 95.5%. For the same molecule, the activity at 0.1 µM [9] was 89.2%, the activity at 0.1 µM [10] was 94% and the activity at 1 µM [6] was 112%. The activity at 1 µM [7] was 79.4%, the activity at 1 µM [8] was 86.9% and the activity at 1 µM [9] was 101%. The activity at 1 µM [10] was 82.1%, the activity at 10 µM [6] was 80.2% and the activity at 10 µM [7] was 113%. The activity at 10 µM [8] was 86.9%, the activity at 10 µM [9] was 104% and the activity at 10 µM [10] was 96.7%. For the same molecule, the activity at 100 µM [6] was 0%, the activity at 100 µM [7] was 0% and the activity at 100 µM [8] was 0%. The activity at 100 µM [9] was 0% and the activity at 100 µM [10] was 0%.

With `Oc1cc(Cl)c(-c2cc(Cl)ccc2Cl)cc1Cl` [4-OH-PCB 52] the “effect on Ca2+ flux” value (iPSC-CM, 100 μM, because of loss of cell viability) was “complete block of Ca^2+ flux”.
